Assay [1] deals with T1, wild type human DAT (Homo sapiens, UniProt Q01959). As to the kind of experiment: [^3H]CFT binding on intact transfected COS7 cells. The following applies: WT DAT.
Assay [2] deals with T2, human DAT V152A (Homo sapiens, UniProt Q01959, V152A). Nature of the assay: [^3H]CFT binding on intact transfected COS7 cells. Particulars: V152A, intact COS7 cells.
In assay [3] the target is T3, human DAT V152I (Homo sapiens, UniProt Q01959, V152I). As to the kind of experiment: [^3H]CFT binding on intact transfected COS7 cells. Particulars: V152I, intact COS7 cells.
T3 sequence (Q01959 whole entry V152I): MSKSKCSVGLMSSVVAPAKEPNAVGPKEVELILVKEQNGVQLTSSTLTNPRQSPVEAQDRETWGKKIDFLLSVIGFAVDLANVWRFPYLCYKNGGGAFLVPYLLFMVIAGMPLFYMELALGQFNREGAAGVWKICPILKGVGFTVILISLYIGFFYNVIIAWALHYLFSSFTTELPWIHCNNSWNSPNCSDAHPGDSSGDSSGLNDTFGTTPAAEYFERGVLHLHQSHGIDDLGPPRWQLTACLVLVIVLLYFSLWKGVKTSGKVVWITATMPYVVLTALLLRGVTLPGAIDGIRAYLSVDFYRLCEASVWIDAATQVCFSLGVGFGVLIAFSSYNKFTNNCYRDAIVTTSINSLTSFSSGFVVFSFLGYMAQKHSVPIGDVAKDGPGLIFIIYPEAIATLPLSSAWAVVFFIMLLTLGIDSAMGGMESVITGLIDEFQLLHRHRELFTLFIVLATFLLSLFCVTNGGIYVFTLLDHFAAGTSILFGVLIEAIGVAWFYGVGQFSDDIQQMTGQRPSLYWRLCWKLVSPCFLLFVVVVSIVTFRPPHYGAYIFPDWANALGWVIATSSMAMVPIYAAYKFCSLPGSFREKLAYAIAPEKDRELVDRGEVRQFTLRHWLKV
The target of assay [4] is T4, human DAT A479V/A480V (Homo sapiens, UniProt Q01959, A479V/A480V). Nature of the assay: [^3H]CFT binding on intact transfected COS7 cells.
T4 sequence (Q01959 whole entry A479V/A480V): as the sequence (Q01959 whole entry V152I) above, with I152V, A479V, A480V counted along it
The target of assay [5] is T1, wild type human DAT. Nature of the assay: [^3H]dopamine uptake in transfected COS7 cells. It is filed as cell-based. Particulars: WT DAT.
The target in assay [6] is T2, human DAT V152A. As to the kind of experiment: [^3H]dopamine uptake in transfected COS7 cells. The format is cell-based. The following applies: V152A, COS7 cells.
In assay [7] the target is T3, human DAT V152I. Nature of the assay: [^3H]dopamine uptake in transfected COS7 cells. The following applies: V152I, COS7 cells. It is filed as cell-based.
A further assay addresses human DAT N157A (Homo sapiens, UniProt Q01959, N157A). As to the kind of experiment: [^3H]dopamine uptake in transfected COS7 cells. The format is cell-based.
Another assay deals with human DAT N157C (Homo sapiens, UniProt Q01959, N157C). Nature of the assay: [^3H]dopamine uptake in transfected COS7 cells. The format is cell-based.
human DAT N157C, sequence (Q01959 whole entry N157C): as the sequence (Q01959 whole entry V152I) above, with I152V, N157C counted along it
Another assay has as its target human DAT S422A (Homo sapiens, UniProt Q01959, S422A). As to the kind of experiment: [^3H]dopamine uptake in transfected COS7 cells. It is filed as cell-based.
Assay [8] deals with T4, human DAT A479V/A480V. As to the kind of experiment: [^3H]dopamine uptake in transfected COS7 cells. The format is cell-based.

T2 sequence (Q01959 whole entry V152A): as the sequence (Q01959 whole entry V152I) above, with I152A counted along it
T1 sequence (Q01959 whole entry): as the sequence (Q01959 whole entry V152I) above, with I152V counted along it
human DAT S422A, sequence (Q01959 whole entry S422A): as the sequence (Q01959 whole entry V152I) above, with I152V, S422A counted along it
human DAT N157A, sequence (Q01959 whole entry N157A): as the sequence (Q01959 whole entry V152I) above, with I152V, N157A counted along it

`COC(=O)[C@H]1[C@@H](c2ccc(F)cc2)C[C@@H]2CC[C@H]1N2C` [CFT, (−)-2β-carbomethoxy-3β-(4-fluorophenyl)tropane]: the “Bmax ± S.E. of [^3H]CFT binding” value is on record as 386 ± 89 fmol/10^5 cells at wild type human DAT [1], 380 ± 99 fmol/10^5 cells on human DAT V152A [2], 215 ± 58 fmol/10^5 cells on human DAT V152I [3] and 310 ± 44 fmol/10^5 cells on human DAT A479V/A480V [4].
As for `NCCc1ccc(O)c(O)c1` [[^3H]Dopamine, 3,4-[Ring-2,5,6-^3H]-dihydroxyphenylethylamine], the “Vmax ± S.E. of [^3H]dopamine uptake” value at wild type human DAT [5] amounted to 5275 ± 555 fmol/min/10^5 cells; on human DAT V152A [6], 614 ± 167 fmol/min/10^5 cells; at human DAT V152I [7], 242 ± 37 fmol/min/10^5 cells; at human DAT N157A, 598 ± 179 fmol/min/10^5 cells; on human DAT N157C, 1768 ± 159 fmol/min/10^5 cells; on human DAT S422A (S422A, COS7 cells) it was 320 ± 40 fmol/min/10^5 cells. Also, the “Vmax ± S.E. of [^3H]dopamine uptake” value at human DAT A479V/A480V [8] came out at 2231 ± 157 fmol/min/10^5 cells. On human DAT S422A (S422A vs WT), the “increase in Km value for [^3H]dopamine uptake versus wild type” value is listed as ~ 4 fold.
